Experimental data from patent US20220220561A1, “METHODS AND CLINICAL PROTOCOLS AND KITS PERTAINING TO MAKING AND USING THERAPEUTIC COMPOSITIONS FOR CELLULAR TREATMENT” (ADVANCED REGEN MEDICAL TECHNOLOGIES, LLC, priority 2019, published 2022).

Assays:
[1] = system: aged MPB
[2] = system: heterochronic cultures; experiment: exosome production, total RNA and miRNA payload in heterochronic cultures; assay type: cell-based, human
[3] = system: Aged TNCs; experiment: cell count and Trypan blue viability of aged TNCs cultured with CaMKP inhibitor; assay type: cell-based, human
Experimental: Aged TNCs (20×10^6 cells per sample) were cultured with CaMKP inhibitor (FT-0640107 shown below) at the following concentrations 25 uM, 10 uM, 5 uM, 1 uM & 0 (vehicle). After 48 and 72 hours, cells were harvested, counted using Turk's solution and percent viability assessed using Trypan blue exclusion.
At 72 hours following treatment with the CaMPK inhibitor, FT-0640107, or vehicle, cells were harvested, counted and viability measured using Trypan blue exclusion.

[4] = system: Restored cells; experiment: transwell co-culture restoration in the presence or absence of manumycin; assay type: cell-based, human
Description: Receiver cell samples (i.e., R1, R2, and R3) were individually paired with donor cell samples (i.e., D1, D2, and D3) and the pairs co-cultured in a transwell culture cell for four weeks. The morphology of the cells was studied at 2 weeks into the co-culture and at 4 weeks of co-culture. Gene expression arrays, protein arrays, and telomere length experiments compared freshly defrosted cells from the collection tubes (referred to as the baseline donor cell sample or baseline receiver cell sample) with cells at the 4-week study endpoint (referred to as restored cell samples).
The nature of the soluble particles passing through the permeable membrane in the transwell co-culture experiments was investigated. Specifically, transwell co-culture experiments were carried out in the presence or absence of manumycin. Manumycin, N-[(1S,5S,6R)-5-hydroxy-5-[(1E,3E,5E)-7-[(2-hydroxy-5-oxo-1-cyclopenten-1-yl)amino]-7-oxo-1,3,5-heptatrien-1-yl]-2-oxo-7-oxabicyclo[4.1.0]hept-3-en-3-yl]-2E,4E,6R-trimethyl,2,4-decadienamide, is an antibiotic that acts a potent and selective farnesytransferase inhibitor. Manumycin is also known to inhibit the release of exosomes. […] Further support for the role of exosome/microvesicles in mediating the disclosed cellular restoration process is shown in FIG. 55.

[5] = system: serine-threonine protein phosphatases; conditions: cited from earlier work

CC(NS(=O)(=O)c1ccc2[nH]c(=O)c(=O)[nH]c2c1)C(=O)O (centres unmarked) [BCI-137]
aged MPB clonogenicity ([1]; heterochronic cultures treated with inhibitor): significant decrease
exosome production and total RNA content [2]: minimal effect
small and miRNA payload [2]: depleted

Nc1c(S(=O)(=O)O)cc(S(=O)(=O)[O-])c2cccc(O)c12.[Na+] [FT-0640107]
cell number ([3]; 1 μM, 72 hours, vs vehicle control and 25 μM, donor A04): increase in cell number
viability at 1 µM ([3]; Homo sapiens, 1 μM, 72 hours, donor A04): 96.3%
viability at 25 µM ([3]; Homo sapiens, 25 μM, 72 hours, donor A04): 93%
cell viability and number ([3]; donor A03, 48 or 72 hour): no significant difference

O=C(/C=C/c1ccc(/C=C/C(=O)Nc2ccc(C3=NCCN3)cc2)cc1)Nc1ccc(C2=NCCN2)cc1 [GW4869]
toxicity to aged cultures [1]: extremely toxic
restorative phenotype ([1]; blocking global exosome production, data not shown): abrogated the restorative phenotype

CCCC[C@@H](C)/C=C(C)/C=C(\C)C(=O)NC1=C[C@@](O)(/C=C/C=C/C=C/C(=O)NC2=C(O)CCC2=O)[C@@H]2O[C@@H]2C1=O [manumycin, N-[(1S,5S,6R)-5-hydroxy-5-[(1E,3E,5E)-7-[(2-hydroxy-5-oxo-1-cyclopenten-1-yl)amino]-7-oxo-1,3,5-heptatrien-1-yl]-2-oxo-7-oxabicyclo[4.1.0]hept-3-en-3-yl]-2E,4E,6R-trimethyl,2,4-decadienamide]
morphology of restored cells ([4]; 5 μM): less robust morphology
telomere length ([4]; restored cell sample): decreased
protein expression of restored cell samples ([4]; vs absence of manumycin): elevated levels of all proteins investigated
gene expression of restored cell samples ([4]; vs changes seen in the absence of manumycin): did not display a change in expression levels

dragmacidin D
inhibition of serine-threonine protein phosphatases [5]: potent inhibitor
